Experimental data reported in PubChem BioAssay AID1963866 (Molecular Pharmacology Branch, DTP, NCI, 2024).

Test system: PDC KRAS tumor spheroids with HUVEC/MSC, viability
Assay: Anticancer human tumor 349418-098-R-PDC patient-derived lung adenocarcinoma cell line growth inhibition [KRAS2]
Conditions: for IC50: curve of first compound; for viability, T/C: stronger effect = lower value
In short: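 KRAS-mutant tumor cells were grown as spheroids with HUVEC endothelial cells and human MSCs as stroma. Targeted agents were tested alone and with KRAS pathway inhibitors. Doses started at or near clinical Cmax, or 10 microM, descending half-log.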

[1] = second compound 0.1 µM, first compound 0.01 µM
[2] = second compound 0.1 µM, first compound 0.0316 µM
[3] = second compound 0.1 µM, first compound 0.1 µM
[4] = second compound 0.316 µM, first compound 0.01 µM
[5] = second compound 0.316 µM, first compound 0.0316 µM
[6] = second compound 0.316 µM, first compound 0.1 µM
[7] = second compound 1 µM, first compound 0.01 µM
[8] = second compound 1 µM, first compound 0.0316 µM
[9] = second compound 1 µM, first compound 0.1 µM
[10] = second compound 3.16 µM, first compound 0.01 µM
[11] = second compound 3.16 µM, first compound 0.0316 µM
[12] = second compound 3.16 µM, first compound 0.1 µM
[13] = second compound 10 µM, first compound 0.01 µM
[14] = second compound 10 µM, first compound 0.0316 µM
[15] = second compound 10 µM, first compound 0.1 µM
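Also: spheroids exposed to compounds for seven days before readout.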

CN(C)C/C=C/C(=O)Nc1cc2c(Nc3ccc(F)c(Cl)c3)ncnc2cc1O[C@H]1CCOC1 + C=CC(=O)N1CCN(c2nc(=O)n(-c3c(C)ccnc3C(C)C)c3nc(-c4c(O)cccc4F)c(F)cc23)C(C)C1
IC50 (second compound 0.1 µM): > 0.1 µM | IC50 (second compound 0.316 µM): > 0.1 µM | IC50 (second compound 1 µM): > 0.1 µM | IC50 (second compound 3.16 µM): > 0.1 µM | IC50 (second compound 10 µM): < 0.000316 µM | viability, T/C (second compound 0.1 µM, first compound 0.000316 µM): 104% | viability, T/C (second compound 0.1 µM, first compound 0.001 µM): 97.8% | viability, T/C (second compound 0.1 µM, first compound 0.00316 µM): 98.7% | viability, T/C [1]: 83.3% | viability, T/C [2]: 99.1% | viability, T/C [3]: 94% | viability, T/C (second compound 0.316 µM, first compound 0.000316 µM): 96.6% | viability, T/C (second compound 0.316 µM, first compound 0.001 µM): 106% | viability, T/C (second compound 0.316 µM, first compound 0.00316 µM): 95.1% | viability, T/C [4]: 91.7% | viability, T/C [5]: 100% | viability, T/C [6]: 87.5% | viability, T/C (second compound 1 µM, first compound 0.000316 µM): 90.6% | viability, T/C (second compound 1 µM, first compound 0.001 µM): 85.6% | viability, T/C (second compound 1 µM, first compound 0.00316 µM): 81% | viability, T/C [7]: 95.3% | viability, T/C [8]: 80.5% | viability, T/C [9]: 78.2% | viability, T/C (second compound 3.16 µM, first compound 0.000316 µM): 78% | viability, T/C (second compound 3.16 µM, first compound 0.001 µM): 68.4% | viability, T/C (second compound 3.16 µM, first compound 0.00316 µM): 83.8% | viability, T/C [10]: 59.5% | viability, T/C [11]: 55.2% | viability, T/C [12]: 64.9% | viability, T/C (second compound 10 µM, first compound 0.000316 µM): 40.9% | viability, T/C (second compound 10 µM, first compound 0.001 µM): 40.2% | viability, T/C (second compound 10 µM, first compound 0.00316 µM): 35.9% | viability, T/C [13]: 32.3% | viability, T/C [14]: 27.5% | viability, T/C [15]: 32.6%

CC1COCCN1c1cc(-c2ccnn2C)c2ccnc(-c3ccn[nH]3)c2n1 (stereo not given) + C=CC(=O)N1CCN(c2nc(=O)n(-c3c(C)ccnc3C(C)C)c3nc(-c4c(O)cccc4F)c(F)cc23)C(C)C1
IC50 (second compound 0.1 µM): 0.0274 µM | IC50 (second compound 0.316 µM): 0.0264 µM | IC50 (second compound 1 µM): 0.0271 µM | IC50 (second compound 3.16 µM): 0.0154 µM | IC50 (second compound 10 µM): < 0.01 µM | viability, T/C [1]: 76.3% | viability, T/C [2]: 46.3% | viability, T/C [3]: 9.21% | viability, T/C (second compound 0.1 µM, first compound 0.316 µM): 6.2% | viability, T/C (second compound 0.1 µM, first compound 1 µM): 4.48% | viability, T/C (second compound 0.1 µM, first compound 3.16 µM): 4.43% | viability, T/C [4]: 117% | viability, T/C [5]: 37.7% | viability, T/C [6]: 8.7% | viability, T/C (second compound 0.316 µM, first compound 0.316 µM): 4.96% | viability, T/C (second compound 0.316 µM, first compound 1 µM): 4.36% | viability, T/C (second compound 0.316 µM, first compound 3.16 µM): 4.34% | viability, T/C [7]: 101% | viability, T/C [8]: 42% | viability, T/C [9]: 7.61% | viability, T/C (second compound 1 µM, first compound 0.316 µM): 5.66% | viability, T/C (second compound 1 µM, first compound 1 µM): 4.24% | viability, T/C (second compound 1 µM, first compound 3.16 µM): 4.16% | viability, T/C [10]: 69% | viability, T/C [11]: 18.1% | viability, T/C [12]: 6.37% | viability, T/C (second compound 3.16 µM, first compound 0.316 µM): 4.8% | viability, T/C (second compound 3.16 µM, first compound 1 µM): 4.05% | viability, T/C (second compound 3.16 µM, first compound 3.16 µM): 4.49% | viability, T/C [13]: 21.2% | viability, T/C [14]: 5.73% | viability, T/C [15]: 4.31% | viability, T/C (second compound 10 µM, first compound 0.316 µM): 4.56% | viability, T/C (second compound 10 µM, first compound 1 µM): 4.61% | viability, T/C (second compound 10 µM, first compound 3.16 µM): 4.96%
